Our source for the T/C values is PubChem BioAssay AID248 (DTP/NCI, 2004).

Where “and” joins values, the source holds several entries; their conditions need not be identical. Identical values can stand only once. Inconclusive results and toxic doses are left out.

For the assay, the system named is L1210 leukemia ip in BDF1 mice, survival T/C. Kind of assay: NCI In Vivo Anticancer Drug Screen. Data for tumor model L1210 Leukemia (intraperitoneal) in B6D2F1 (BDF1) mice. The note with it: endpoint: mean survival time, higher = longer survival. Put shortly:
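Ratio derived from survival: compound-dosed mice over vehicle-dosed mice, all bearing a transplantable tumor.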

The mark [1] stands for this setting: dose: 100.0 mg/kg/injection, schedule: Q04DX003 (ip), vehicle: Klucel (hydroxypropylcellulose) (HPC).
The mark [2] stands for this setting: dose: 200.0 mg/kg/injection, schedule: Q04DX003 (ip), vehicle: Klucel (hydroxypropylcellulose) (HPC).
Where [3] appears, read: dose: 400.0 mg/kg/injection, schedule: Q04DX003 (ip), vehicle: Klucel (hydroxypropylcellulose) (HPC).
Setting [4] is: dose: 100.0 mg/kg/injection, schedule: Q01DX001 (ip), vehicle: saline.
The mark [5] stands for this setting: dose: 200.0 mg/kg/injection, schedule: Q01DX001 (ip), vehicle: saline.
Where [6] appears, read: dose: 400.0 mg/kg/injection, schedule: Q01DX001 (ip), vehicle: saline.
[7] abbreviates: dose: 100.0 mg/kg/injection, schedule: Q01DX009 (ip), vehicle: Klucel (hydroxypropylcellulose) (HPC).
[8] abbreviates: dose: 200.0 mg/kg/injection, schedule: Q01DX009 (ip), vehicle: Klucel (hydroxypropylcellulose) (HPC).
Setting [9] is: dose: 400.0 mg/kg/injection, schedule: Q01DX009 (ip), vehicle: Klucel (hydroxypropylcellulose) (HPC).
Where [10] appears, read: dose: 200.0 mg/kg/injection, schedule: Q04DX002 (ip), vehicle: saline.
Setting [11] is: dose: 400.0 mg/kg/injection, schedule: Q04DX002 (ip), vehicle: saline.

For `COc1ccccc1-n1c(O)c(N=Nc2ccc(Cl)cc2)c(=O)n(-c2ccc(Cl)cc2)c1=S`, the T/C reads like this: (dose: 75.0 mg/kg/injection, schedule: Q04DX003 (ip), vehicle: Klucel (hydroxypropylcellulose) (HPC)) 94 % of control; (dose: 100.0 mg/kg/injection, schedule: Q01DX001 (ip), vehicle: Klucel (hydroxypropylcellulose) (HPC)) 94 % of control; (dose: 150.0 mg/kg/injection, schedule: Q04DX003 (ip), vehicle: Klucel (hydroxypropylcellulose) (HPC)) 103 % of control; (dose: 200.0 mg/kg/injection, schedule: Q01DX001 (ip), vehicle: Klucel (hydroxypropylcellulose) (HPC)) 100 % of control; (dose: 300.0 mg/kg/injection, schedule: Q04DX003 (ip), vehicle: Klucel (hydroxypropylcellulose) (HPC)) 90 % of control.

For the compound `CCCS/C(N)=N/N=C/c1ccc([N+](=O)[O-])o1`, the T/C by setting is: (dose: 50.0 mg/kg/injection, schedule: Q01DX001 (ip), vehicle: other) 96 % of control; (dose: 100.0 mg/kg/injection, schedule: Q01DX001 (ip), vehicle: other) 94 % of control.

For the compound `Cc1nc(N)cc(Cl)n1`, the T/C by setting is: under setting [1], 101 % of control; under setting [2], 103 % of control; under setting [3], 90 % of control.

On to `CC1CCC(NC(=O)NCCCl)c2ccccc21` (centres undefined), for which the T/C runs as follows: (dose: 20.0 mg/kg/injection, schedule: Q04DX003 (ip), vehicle: Klucel (hydroxypropylcellulose) (HPC)) 102 % of control; (dose: 40.0 mg/kg/injection, schedule: Q04DX003 (ip), vehicle: Klucel (hydroxypropylcellulose) (HPC)) 100 % of control; (dose: 80.0 mg/kg/injection, schedule: Q04DX003 (ip), vehicle: Klucel (hydroxypropylcellulose) (HPC)) 100 % of control.

Take `O=C(O)c1csnn1`: the T/C is 102 % of control under setting [4], 97 % of control under setting [5] and 103 % of control under setting [6].

For `ClC1=C(Cl)C(Cl)(C2(Cl)C(Cl)=C(Cl)C(Cl)=C2Cl)C(Cl)=C1Cl`, the T/C was 93 % of control under setting [7], 102 % of control under setting [8] and 95 % of control under setting [9].

Consider `CC1CCCN(C(=O)Nc2cccc(Cl)c2Cl)C1` (centres undefined), for which the T/C under setting [7] is 87 % of control, the T/C under setting [8] is 92 % of control and the T/C under setting [9] was 96 % of control.

On to `CCC[CH2][Sn]([CH2]CCC)([n]1cncn1)[n]1cncn1`, for which the T/C (dose: 3.13 mg/kg/injection, schedule: Q04DX003 (ip), vehicle: saline with Tween-80) was 101 % of control; the T/C (dose: 6.25 mg/kg/injection, schedule: Q04DX002 (ip), vehicle: saline with Tween-80) is 104 % of control; the T/C (dose: 6.25 mg/kg/injection, schedule: Q04DX003 (ip), vehicle: saline with Tween-80) was 101 % of control; the T/C (dose: 12.5 mg/kg/injection, schedule: Q04DX002 (ip), vehicle: saline with Tween-80) was 104 % of control; the T/C (dose: 12.5 mg/kg/injection, schedule: Q04DX003 (ip), vehicle: saline with Tween-80) is 95 % of control; the T/C (dose: 25.0 mg/kg/injection, schedule: Q04DX002 (ip), vehicle: saline with Tween-80) was 93 % of control.

Consider `N#Cc1ccsc1C#N`, for which the T/C (dose: 100.0 mg/kg/injection, schedule: Q04DX003 (ip), vehicle: acetone) was 109 % of control.

Consider `O=C(O)CCSCCC(=O)O`, for which the T/C reads like this: (dose: 75.0 mg/kg/injection, schedule: Q01DX009 (ip), vehicle: Klucel (hydroxypropylcellulose) (HPC)) 92 % of control; (dose: 75.0 mg/kg/injection, schedule: Q04DX003 (ip), vehicle: saline) 100 % of control; (dose: 150.0 mg/kg/injection, schedule: Q01DX009 (ip), vehicle: Klucel (hydroxypropylcellulose) (HPC)) 92 % of control; (dose: 150.0 mg/kg/injection, schedule: Q04DX003 (ip), vehicle: saline) 100 % of control; (dose: 300.0 mg/kg/injection, schedule: Q01DX009 (ip), vehicle: Klucel (hydroxypropylcellulose) (HPC)) 94 % of control; (dose: 300.0 mg/kg/injection, schedule: Q04DX003 (ip), vehicle: saline) 102 % of control.

Take `C(=N\C(/N=C/c1ccco1)c1ccco1)/c1ccco1`: the T/C under setting [7] is 94 % of control; the T/C under setting [1] was 96 % of control; the T/C under setting [8] is 105 % of control; the T/C under setting [2] was 98 % of control; the T/C under setting [9] was 97 % of control; the T/C under setting [3] was 100 % of control.

With `COC(=O)C1C2CC3c4[nH]c5cc(OC)ccc5c4CCN3CC2CC(OC)C1OC` (centres undefined), the T/C is 104 % of control (dose: 0.78 mg/kg/injection, schedule: Q03HX024 (ip), vehicle: saline); 96 % of control (dose: 1.56 mg/kg/injection, schedule: Q03HX024 (ip), vehicle: saline); 93 % of control (dose: 2.0 mg/kg/injection, schedule: Q01DX009 (ip), vehicle: saline); 100 % of control (dose: 3.12 mg/kg/injection, schedule: Q03HX024 (ip), vehicle: saline); 94 % of control (dose: 4.0 mg/kg/injection, schedule: Q01DX009 (ip), vehicle: saline); 110 % of control (dose: 6.25 mg/kg/injection, schedule: Q03HX024 (ip), vehicle: saline). Besides, the T/C is 95 % of control (dose: 6.25 mg/kg/injection, schedule: Q04DX003 (ip), vehicle: saline); 88 % of control (dose: 8.0 mg/kg/injection, schedule: Q01DX009 (ip), vehicle: saline); 97 % of control (dose: 12.5 mg/kg/injection, schedule: Q04DX003 (ip), vehicle: saline); 89 % of control (dose: 16.0 mg/kg/injection, schedule: Q01DX009 (ip), vehicle: saline); 102 % of control (dose: 18.75 mg/kg/injection, schedule: Q01DX001 (ip), vehicle: saline); 102 % of control (dose: 25.0 mg/kg/injection, schedule: Q04DX003 (ip), vehicle: saline). The T/C was 96 % of control (dose: 32.0 mg/kg/injection, schedule: Q01DX009 (ip), vehicle: saline); 112 % of control (dose: 37.5 mg/kg/injection, schedule: Q01DX001 (ip), vehicle: saline); 105 % of control and 122 % of control (dose: 50.0 mg/kg/injection, schedule: Q04DX003 (ip), vehicle: saline); 112 % of control (dose: 75.0 mg/kg/injection, schedule: Q01DX001 (ip), vehicle: saline).

As to `O=C(O)C(Oc1ccc(Cl)cc1Cl)C(Oc1ccc(Cl)cc1Cl)C(=O)O` (centres undefined), the T/C (dose: 100.0 mg/kg/injection, schedule: Q04DX002 (ip), vehicle: carboxymethylcellulose (CMC)) is 98 % of control; the T/C (dose: 200.0 mg/kg/injection, schedule: Q04DX002 (ip), vehicle: carboxymethylcellulose (CMC)) was 88 % of control; the T/C (dose: 400.0 mg/kg/injection, schedule: Q04DX002 (ip), vehicle: Klucel (hydroxypropylcellulose) (HPC)) was 155 % of control; the T/C (dose: 400.0 mg/kg/injection, schedule: Q04DX002 (ip), vehicle: carboxymethylcellulose (CMC)) was 92 % of control; the T/C (dose: 800.0 mg/kg/injection, schedule: Q04DX002 (ip), vehicle: carboxymethylcellulose (CMC)) is 98 % of control.

Turning to `[C](#[C][Sn]([c]1ccccc1)([c]1ccccc1)[c]1ccccc1)[Sn]([c]1ccccc1)([c]1ccccc1)[c]1ccccc1`, the T/C reads like this: under setting [1], 94 % of control; under setting [10], 92 % of control; under setting [2], 95 % of control; under setting [11], 92 % of control; under setting [3], 111 % of control.

As to `OC1CC2CCC1C21OCCO1` (centres undefined), the T/C reads like this: (dose: 100.0 mg/kg/injection, schedule: Q01DX009 (ip), vehicle: saline) 107 % of control; (dose: 200.0 mg/kg/injection, schedule: Q01DX009 (ip), vehicle: saline) 100 % of control; (dose: 400.0 mg/kg/injection, schedule: Q01DX009 (ip), vehicle: saline) 109 % of control.

With `CC(=O)ONC(NOC(C)=O)N[N+](=O)[O-]`, the T/C runs as follows: under setting [4], 103 % of control; under setting [5], 98 % of control; under setting [6], 102 % of control.

On to `C[n+]1ccccc1/C=C/c1cccc([N+](=O)[O-])c1`, for which the T/C reads like this: (dose: 5.0 mg/kg/injection, schedule: Q04DX003 (ip), vehicle: saline with Tween-80) 101 % of control; (dose: 10.0 mg/kg/injection, schedule: Q04DX003 (ip), vehicle: saline with Tween-80) 90 % of control; (dose: 20.0 mg/kg/injection, schedule: Q04DX003 (ip), vehicle: saline with Tween-80) 100 % of control.

For `C=CCC(O)c1ccccc1` (centres undefined), the T/C is, setting by setting: (dose: 100.0 mg/kg/injection, schedule: Q04DX002 (ip), vehicle: saline) 103 % of control; under setting [10], 100 % of control; under setting [11], 113 % of control.
